The target in one assay is hP2Y12 (Homo sapiens, UniProt Q9H244). The assay is described as follows: Inhibition of [3H]PSB-0413 binding at hP2Y12. Conditions: mean ± SEM, read-out: hP2Y12 % Inhibition of [^3H]PSB-0413 Binding at 10 μM, n = 3. As for the experimental part:
(§1) In table 2 inhibition data of selected examples at human P2Y receptor subtypes were collected. It can be seen that no compound was identified that inhibited P2Y receptors at high concentrations of 100 μM and 10 μM, respectively.

Another assay has as its target hP2Y4 (Homo sapiens, UniProt P51582). The assay is described as follows: Inhibition of UTP binding at hP2Y4. The conditions noted are these: read-out: hP2Y4 % inhibition of UTP binding at 100 μM, n = 3, mean ± SEM. As for the experimental part: as §1
The target in the next assay is rP2Y6 (Rattus norvegicus, UniProt Q63371). Kind of assay: Inhibition of UDP binding at rP2Y6. The conditions noted are these: read-out: rP2Y6 % inhibition of UDP binding at 100 μM, n = 3, mean ± SEM.
In a further assay the target is T1, human NTPDase1 (Homo sapiens, UniProt P49961).
T1 sequence (P49961 1-510): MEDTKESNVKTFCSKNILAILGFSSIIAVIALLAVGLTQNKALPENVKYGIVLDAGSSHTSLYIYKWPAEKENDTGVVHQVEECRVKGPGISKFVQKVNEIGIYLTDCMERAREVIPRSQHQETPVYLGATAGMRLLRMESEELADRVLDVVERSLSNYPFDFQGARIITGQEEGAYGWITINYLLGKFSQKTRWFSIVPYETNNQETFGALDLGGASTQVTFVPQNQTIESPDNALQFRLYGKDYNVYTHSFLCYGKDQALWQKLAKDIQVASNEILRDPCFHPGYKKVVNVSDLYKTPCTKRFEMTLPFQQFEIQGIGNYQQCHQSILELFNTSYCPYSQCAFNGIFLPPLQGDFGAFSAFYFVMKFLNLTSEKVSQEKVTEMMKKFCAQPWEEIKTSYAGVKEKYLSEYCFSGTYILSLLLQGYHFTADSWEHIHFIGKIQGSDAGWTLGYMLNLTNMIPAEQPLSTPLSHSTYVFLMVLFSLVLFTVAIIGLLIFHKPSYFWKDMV
The assay is described as follows: NTPDase inhibition assay by capillary electrophoresis (CE), NTPDase1. The class given is biochemical. Conditions: CE method, ATP 320 μM, Km 17 μM, read-out: NTPDase1 Ki [μM] ± SEM. As for the experimental part: The applied enzyme inhibition assay has been described (Iqbal J, Vollmayer P, Braun N, Zimmermann H, Müller C E. A capillary electrophoresis method for the characterization of ecto-nucleoside triphosphate diphosphohydrolases (NTPDases) and the analysis of inhibitors by in-capillary enzymatic microreaction. Purinergic Signalling 2005, 1, 349-358).
A. CE instrumentation: All experiments were carried out using a P/ACE MDQ capillary electrophoresis system (Beckman Instruments, Fullerton, Calif., USA) equipped with a UV detection system coupled with a diode-array detector (DAD). Data collection and peak area analysis were performed by the P/ACE MDQ software 32 KARAT obtained from Beckman Coulter. The capillary temperature was kept constant at 25° C. The temperature of the sample storing unit was also adjusted to 25° C. The electrophoretic separations were carried out using an eCAP polyacrylamide-coated fused-silica capillary [(30 cm (20 cm effective length)×50 μm internal diameter (I.D.)×360 μm outside diameter (O.D.), obtained from CS-Chromatographie (Langerwehe, Germany)]. The separation was performed using an applied current of −60 μA and a data acquisition rate of 8 Hz. Analytes were detected using direct UV absorbance at 210 nm. The capillary was conditioned by rinsing with water for 2 min and subsequently with buffer (phosphate 50 mM, pH 6.5) for 1 min. Sample injections were made at the cathodic side of the capillary.
B. NTPDase inhibition assay by capillary electrophoresis: Enzyme inhibition assays were carried out at 37° C. in a final volume of 100 μl. The reaction mixture contained 320 μM of ATP (substrate) in reaction buffer. The reaction buffer contained 140 mM NaCl, 5 mM KCl, 1 mM MgCl2, 2 mM CaCl2, and 10 mM Hepes, pH 7.4.
Different concentrations of inhibitors dissolved in DMSO or water (10 μl) were added and the reaction was initiated by the addition of 10 μl of the appropriately diluted recombinant or native human or rat NTPDase enzyme. […] The mixture (final volume 100 μl) was incubated for 15 min and terminated by heating at 99° C. for 4 min. Aliquots of the reaction mixture (50 μl) were then transferred to mini-CE vials and injected into the CE instrument under the conditions described above. 20 μM of UMP was used as internal standard. Inhibition of NTPDase was tested over a range of 6 to 8 concentrations of test compound spanning 3 orders of magnitude to determine K1 values. Each analysis was repeated two times (in triplicates) in two separate experiments. The Cheng-Prusoff equation was used to calculate the K1 values from the IC50 values, determined by the non-linear curve fitting program PRISM® 3.0 (GraphPad, San Diego, Calif., USA). In table 1K, values of selected compounds as inhibitors of human NTPDases are given.

A further assay concerns the target hP2Y2 (Homo sapiens, UniProt P41231). The assay is described as follows: Inhibition of UTP binding at hP2Y2. The conditions noted are these: read-out: hP2Y2 % inhibition of UTP binding at 100 μM, n = 3, mean ± SEM. On the procedure:
as §1

For a further assay, the target named is T2, human NTPDase2 (Homo sapiens, UniProt Q9Y5L3).
T2 sequence (Q9Y5L3 1-495): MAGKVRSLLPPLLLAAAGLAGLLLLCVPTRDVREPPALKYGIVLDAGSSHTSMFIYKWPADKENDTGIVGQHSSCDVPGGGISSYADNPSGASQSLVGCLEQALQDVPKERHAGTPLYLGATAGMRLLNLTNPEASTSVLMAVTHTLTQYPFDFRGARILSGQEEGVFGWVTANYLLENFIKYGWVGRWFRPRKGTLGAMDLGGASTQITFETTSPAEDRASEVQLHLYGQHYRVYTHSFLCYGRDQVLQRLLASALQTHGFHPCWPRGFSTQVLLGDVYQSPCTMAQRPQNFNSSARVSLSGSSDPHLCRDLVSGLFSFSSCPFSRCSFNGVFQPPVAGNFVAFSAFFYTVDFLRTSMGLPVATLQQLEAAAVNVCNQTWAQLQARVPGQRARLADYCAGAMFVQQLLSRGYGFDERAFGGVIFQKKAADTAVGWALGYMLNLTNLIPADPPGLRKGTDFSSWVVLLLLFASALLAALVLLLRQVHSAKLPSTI
Kind of assay: NTPDase inhibition assay by capillary electrophoresis (CE), NTPDase2. The class given is biochemical.

The next assay addresses T3, rat ecto-5′-nucleotidase (Rattus norvegicus, UniProt P21588).
T3 construct: Catalytically active recombinant soluble glutathione-S-transferase/ecto-5′-nucleotidase fusion protein; GST (glutathione-S-transferase); made in house; host or cells: insect cells, baculovirus system
T3 sequence (P21588 29-551 limits assumed): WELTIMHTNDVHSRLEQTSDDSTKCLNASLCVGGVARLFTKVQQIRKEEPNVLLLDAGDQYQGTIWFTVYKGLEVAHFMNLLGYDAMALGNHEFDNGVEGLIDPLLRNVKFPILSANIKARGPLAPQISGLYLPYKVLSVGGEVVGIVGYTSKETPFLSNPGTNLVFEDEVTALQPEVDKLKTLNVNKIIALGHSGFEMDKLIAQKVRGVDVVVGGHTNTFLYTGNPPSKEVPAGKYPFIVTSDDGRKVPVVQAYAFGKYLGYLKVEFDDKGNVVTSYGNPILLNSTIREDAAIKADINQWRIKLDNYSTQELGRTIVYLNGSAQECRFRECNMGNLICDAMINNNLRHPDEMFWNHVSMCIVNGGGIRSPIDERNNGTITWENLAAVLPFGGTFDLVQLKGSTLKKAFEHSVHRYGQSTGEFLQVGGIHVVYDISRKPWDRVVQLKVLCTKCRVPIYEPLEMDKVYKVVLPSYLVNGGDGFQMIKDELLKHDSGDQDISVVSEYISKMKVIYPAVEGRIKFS
Kind of assay: Ecto-5′-nucleotidase assay by capillary electrophoresis (CE). The class given is biochemical. Conditions: CE method, read-out: Rat Ecto-5′-NT Ki [μM] ± SEM. On the procedure: Catalytically active recombinant soluble glutathione-S-transferase/ecto-5′-nucleotidase fusion protein was expressed in insect cells using the baculovirus system and purified by affinity chromatography using agarose-coupled GSH as previously described [Servos, J., Reilander, H., Zimmermann, H. Drug. Dev. Res. 1998, 45, 269-276]
Enzyme assays were carried out at 37° C. in a final volume of 100 μl. The reaction buffer consisted of 10 mM Hepes (2.38 g/L), 2 mM MgCl2 […], and 1 mM CaCl2 (0.11 g/L), brought to pH 7.4 by adding the appropriate amount of 1-N aqueous HCl solution. The reaction was initiated by the addition of 10 μl of the appropriately diluted enzyme (0.52 μg). The reaction mixture was incubated for 10 min and terminated by heating at 99° C. for 5 min. Nucleosides and nucleotides were stable under these conditions. Aliquots of the reaction mixture (50 μl) were then transferred to mini-CE vials containing 50 μl of the internal standard uridine (final concentration 20 μM). In the absence of an internal standard similar results were obtained. Each analysis was repeated twice (duplicates) in three separate experiments.
CE separations were carried out using a P/ACE MDQ system (Beckman Coulter Instruments, Fullerton, Calif., USA) equipped with a DAD detection system. The electrophoretic separations were carried out using an eCAP fused-silica capillary [30 cm (20 cm effective length)×75 μm internal diameter (I.D), ×375 μm outside diameter (O.D) obtained from Beckman Coulter]. The following conditions were applied: T=25° C., λmax=260 nm, voltage=15 kV, running buffer 40 mM sodium borate buffer, pH 9.1. The capillary was washed with 0.1 M NaOH for 2 min, deionized water for 1 min, and running buffer for 1 min before each injection. Injections were made by applying 0.1 psi of pressure to the sample solution for 30 s. The amount of adenosine formed was determined. The CE instrument was fully controlled through a personal computer, which operated with the analysis software 32 KARAT obtained from Beckman Coulter. Electropherograms were evaluated using the same software.

In general, inhibition refers to the relative decrease from the control value, in per cent. In general, Ki refers to the dissociation constant of the complex between target and ligand, obtained from inhibition or displacement.

Chain of hP2Y2 (P41231 whole entry): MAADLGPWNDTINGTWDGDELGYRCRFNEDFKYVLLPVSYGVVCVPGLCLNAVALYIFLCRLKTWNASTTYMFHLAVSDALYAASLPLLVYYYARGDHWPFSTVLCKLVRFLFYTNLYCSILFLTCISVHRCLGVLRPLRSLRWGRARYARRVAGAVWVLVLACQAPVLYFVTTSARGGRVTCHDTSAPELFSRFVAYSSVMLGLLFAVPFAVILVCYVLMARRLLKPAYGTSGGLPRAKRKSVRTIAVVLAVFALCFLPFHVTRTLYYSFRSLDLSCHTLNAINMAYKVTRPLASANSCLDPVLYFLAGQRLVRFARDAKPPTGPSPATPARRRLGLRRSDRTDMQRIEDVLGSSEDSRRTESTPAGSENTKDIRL
Chain of hP2Y12 (Q9H244 whole entry): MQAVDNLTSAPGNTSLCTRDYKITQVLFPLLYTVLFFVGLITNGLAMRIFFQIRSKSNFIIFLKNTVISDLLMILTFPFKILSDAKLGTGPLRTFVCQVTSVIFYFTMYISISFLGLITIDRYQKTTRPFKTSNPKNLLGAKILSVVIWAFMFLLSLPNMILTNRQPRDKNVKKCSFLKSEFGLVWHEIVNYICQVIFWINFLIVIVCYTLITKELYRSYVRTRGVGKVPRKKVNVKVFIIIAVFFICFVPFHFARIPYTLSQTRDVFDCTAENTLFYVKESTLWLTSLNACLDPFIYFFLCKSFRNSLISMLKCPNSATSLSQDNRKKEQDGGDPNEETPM
Chain of rP2Y6 (Q63371 whole entry): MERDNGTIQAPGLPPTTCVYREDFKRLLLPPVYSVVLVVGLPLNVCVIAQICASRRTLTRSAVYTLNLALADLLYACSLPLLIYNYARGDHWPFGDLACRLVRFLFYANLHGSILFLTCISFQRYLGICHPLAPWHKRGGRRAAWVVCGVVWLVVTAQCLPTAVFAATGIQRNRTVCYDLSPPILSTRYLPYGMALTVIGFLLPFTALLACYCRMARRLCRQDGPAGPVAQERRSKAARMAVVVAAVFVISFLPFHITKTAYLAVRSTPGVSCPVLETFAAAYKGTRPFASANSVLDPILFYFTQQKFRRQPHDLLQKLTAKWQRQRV
Chain of hP2Y4 (P51582 whole entry): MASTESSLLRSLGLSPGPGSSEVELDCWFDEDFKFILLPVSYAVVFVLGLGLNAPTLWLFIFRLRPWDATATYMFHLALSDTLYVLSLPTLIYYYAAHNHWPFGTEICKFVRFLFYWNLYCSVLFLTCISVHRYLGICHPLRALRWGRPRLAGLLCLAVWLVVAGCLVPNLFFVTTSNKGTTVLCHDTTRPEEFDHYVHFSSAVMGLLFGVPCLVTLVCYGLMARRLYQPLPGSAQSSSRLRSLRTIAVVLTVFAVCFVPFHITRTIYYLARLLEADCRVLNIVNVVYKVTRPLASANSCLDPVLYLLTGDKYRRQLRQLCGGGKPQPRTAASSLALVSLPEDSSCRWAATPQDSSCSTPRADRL

For `CCOP(=O)(OCC)C(NC(=O)CNC(=O)[C@H]1O[C@@H](n2ccc(=O)[nH]c2=O)C(O)C1O)P(=O)(OCC)OCC` (stereo in doubt) [Compound 10, 2-[(2S,3R,4S,5R)-5-(2,4-Dioxo-3,4-dihydropyrimidin-1(2H)-yl)-3,4-dihydroxy-tetrahydrofurane-2-carboxamido]ethaneamidomethylenediphosphonic acid tetraethylester], the inhibition at 10 µM on hP2Y12 amounted to 2 ± 5%. Besides, the inhibition at 100 µM is 34 ± 15% at hP2Y4, 8 ± 14% at rP2Y6 and -38 ± 11% at hP2Y2. For the same molecule, the Ki at human NTPDase1 is 93 ± 14 µM; on human NTPDase2 it was around 165 µM. Further, the inhibition at 1000 µM at human NTPDase2 (read-out: NTPDase2 inhibition (%) at 1 mM) worked out at 54%.

Take `CCOC(=O)C(CC(=O)O)NC(=O)CCCNC(=O)[C@H]1O[C@@H](n2ccc(=O)[nH]c2=O)[C@H](O)[C@@H]1O` (stereo partly drawn) [Compound 15, 2-[4-((2S,3R,4S,5R)-5-(2,4-Dioxo-3,4-dihydropyrimidin-1(2H)-yl)-3,4-dihydroxy-tetrahydrofurane-2-carboxamido)butaneamido]-(S)-aspartic acid-1-ethylester]: on human NTPDase1, the Ki was found to be 29 ± 4 µM. Further, the inhibition at 100 µM at hP2Y2 was -28 ± 11%.

On to `O=C(O)CC[C@H](NC(=O)CNC(=O)[C@H]1O[C@@H](N2CCC(=O)NC2=O)[C@H](O)[C@@H]1O)C(=O)O` [Compound 24, 2-[2-((2S,3R,4S,5R)-5-(2,4-Dioxo-3,4,5,6-dihydropyrimidine-1(2H)-yl)-3,4-dihydroxy-tetrahydrofurane-2-carboxamido)ethaneamido]-(S)-glutamic acid], for which the Ki on rat ecto-5′-nucleotidase turned out to be 34.3 ± 0.2 µM.

With `O=C(CNC(=O)[C@H]1O[C@@H](n2ccc(=O)[nH]c2=O)C(O)C1O)Nc1ccc(CP(=O)(O)O)cc1` (stereo in doubt) [Compound 21, 4-[2-((2S,3R,4S,5R)-5-(2,4-Dioxo-3,4-dihydropyrimidine-1(2H)-yl)-3,4-dihydroxy-tetrahydrofurane-2-carboxamido)ethaneamido]benzylphosphonic acid], the Ki at rat ecto-5′-nucleotidase is 6.47 ± 1.31 µM.

In the case of `O=C(O)C[C@H](NC(=O)CCCNC(=O)[C@H]1O[C@@H](N2CCC(=O)NC2=O)[C@H](O)[C@@H]1O)C(=O)O` [Compound 23, 2-[4-((2S,3R,4S,5R)-5-(2,4-Dioxo-3,4,5,6-tetrahydropyrimidine-1(2H)-yl)-3,4-dihydroxy-tetrahydrofurane-2-carboxamido)butaneamido]-(S)-aspartic acid], at rat ecto-5′-nucleotidase, the Ki was 0.18 ± 0.014 µM.

Take `Cc1cn([C@@H]2O[C@H](C(=O)NCCCC(=O)NC(CC(=O)O)C(=O)O)[C@@H](O)[C@H]2O)c(=O)[nH]c1=O` (stereo partly drawn) [Compound 25, 2-[4-((2S,3R,4S,5R)-5-(2,4-Dioxo-5-methylpyrimidin-1(2H)-yl)-3,4-dihydroxy-tetrahydrofurane-2-carboxamido)butaneamido]-(S)-aspartic acid]: the Ki on rat ecto-5′-nucleotidase is 1.61 ± 0.62 µM.

`O=C(O)CCC(NC(=O)CCNC(=O)[C@H]1O[C@@H](N2CCC(=O)NC2=O)[C@H](O)[C@@H]1O)C(=O)O` (stereo partly drawn) [Compound 14, 2-[3-((2S,3R,4S,5R)-5-(2,4-Dioxo-3,4,5,6-tetrahydropyrimidin-1(2H)-yl)-3,4-dihydroxy-tetrahydrofurane-2-carboxamido)propaneamido]-(S)-glutamic acid]: on hP2Y12, the inhibition at 10 µM is 6 ± 4%. Further, the Ki on human NTPDase1 is 10.8 ± 1 µM; at rat ecto-5′-nucleotidase, 0.78 ± 0.18 µM.

Source of the values: patent publication US20100204182A1, “ECTONUCLEOTIDASE INHIBITORS” (RHEINISCHE FRIEDRICH-WILHELMS-UNIVERSITAT BONN, priority 2006, published 2010).
